Test results published in patent US11859242B2, “Template-directed nucleic acid targeting compounds” (Carnegie Mellon University, priority 2017, dated 2024).
“Also recorded” adds a separate entry of the source.

How the values were obtained:
[1] = tested on: RNA targets containing hexameric r(CUGCUG)-repeats (T1-T8); assay: UV melting experiments of MPγPNA probes with RNA targets; type: binding; conditions: for trend of Tms with number of binding-sites in the targets: 10 mM NaPi, 150 mM KCl, 2 mM MgCl2, pH 7.4, 8 μM strand concentration; for differences in the Tms of RNAs with mismatched probes: single (P5) and double (P6) base mismatch probes
Experimental: FIG. 7. UV-melting profiles of PI through P4 with T6. The concentration of T6 was 1 μM and that of each probe was 6 μM, prepared in a physiologically relevant buffer.
FIG. 8. UV-melting profiles of P4-RNA heteroduplexes in a physiologically relevant buffer at 8 μM strand concentration. The samples were prepared by mixing 8 μM of P4 with the respective RNA targets at the following concentrations: T1=8.0 μM, T2=4.0 μM, T4=2.0 μM, T6=1.3 μM, T8=1.0 μM in a physiological buffer and annealed at 90° C. for 5 min, followed by a gradual cooling to room temperature.
FIG. 9. UV-melting transitions of RNAs and the corresponding probe-RNA heteroduplexes containing the perfectly-matched and mismatched sequences as a function of the number of r(CUGCUG)n-binding-sites in the targets. Inset: UV-melting profiles Of RNA with P5 and P6 containing single and double base-mismatches, respectively.
UV Melting Experiments: All UV-melting samples were prepared by mixing MPγPNA with RNA targets at the indicated concentrations in a physiologically simulated buffer (10 mM NaPi (sodium phosphate buffer), 150 mM KCl, 2 mM MgCl2; pH 7-4), and annealed by incubation at 90° C. for 5 min followed by a gradual cooling to room temperature. UV melting curves were collected using Agilent Cary UV-Vis 300 spectrometer equipped with a thermoelectrically controlled multi-cell holder. UV-melting spectra were collected by monitoring UV-absorption at 260 nm from 25° C. to 95° C. in the heating runs, and from 95° C. to 25° C. in the cooling runs, both at the rate of 0.2° C. per min. […] The recorded spectra were smoothed using a 20-point adjacent averaging algorithm. The first derivatives of the melting curves were taken to determine the melting temperatures of the duplex.
All the experiments were conducted at a physiologically relevant ionic strength (10 mM NaPi, 150 mM KCl, and 2 mM MgCl2 at pH 7.4). RNA concentrations were prepared such that the number of r(CUGCUG)-repeats in each sample was the same. […] Based on this finding, we selected P4 and carried out UV-melting study with the various RNA targets. […] Pyrene-pyrene interaction is evident from the inverse absorption profiles of P4-T6 and P4-T8 in the 40-70° C. temperature range. Upon heating, the solvophobic effect becomes more pronounced due to the inverse intensity distribution of vibronic transition of pyrene excimer relative to monomer, Ae^o→o/Am^o→o˜0.6, prior to their dissociation upon further heating. […] The Tms of the P4-RNA series follow a positive linear correlation, Y=66+2X, with X being the number of binding-sites in the targets (FIG. 9). […] Such a phenomenon was also observed with PNA-ligand conjugates.

[2] = tested on: RNA targets containing r(CUGCUG)-repeats (T1-T8); assay: Steady-state fluorescent measurements of P4-RNA duplexes (pyrene excimer emission); conditions: P4 1 μM, equimolar binding sites T1-T8; 37° C., 1 hr
Experimental: (§1) FIG. 10. Fluorescent spectra of P4-RNA duplexes at equimolar concentrations (P4=1 μM; T1=1 μM, T2=½, T4 ¼, T6=⅙, T8 ⅛) following the incubation at 37° C. for 1 hr and excitation at 345 nm. Inset: Fluorescent signals at 480 nm as a function of time following the addition of P4 (1 μM) to T8 (⅛ μM), and P4 (1 μM) to [T1 (1 μM)+T8 (⅛ μM)] at 37° C.
Steady-State Fluorescent Measurements: All steady-state fluorescence samples were prepared by mixing P4-RNA duplexes at the indicated concentrations in a simulated physiological buffer and annealed by incubation at 90° C. for 5 min, followed by a gradual cooling to 37° C. The samples were incubated at 37° C. for 1 hr before the measurements. Steady-state fluorescence data were collected at 37° C. by Cary Eclipse Fluorescence Spectrometer. (εex=350 nm and εem=480 nm) with slit size.
(§2) To further corroborate these findings, we carried out fluorescent measurements under identical conditions. The samples were excited at 340 nm, and the fluorescent signals were recorded from 345 to 650 nm. Characteristic of the pyrene-pyrene excimer formation is the emission at 480 nm (FIG. 10). […] The samples were markedly different under UV-illumination, such that they could be distinguished with the naked eyes (FIG. 11).

[3] = tested on: T8 RNA (r(CUGCUG)-repeats), with or without competing T1; assay: Real-time fluorescent binding kinetics
Experimental: as §1
Real-Time Fluorescent Binding Kinetics: For real-time fluorescent kinetic experiment the samples were prepared as followed: (1) P4 alone, (2) P4, T1 and T8 annealed prior to the measurement, (3) addition of P4 to T8 at 37° C., and (4) addition of P4 to T8 in the presence of T1 at equimolar binding sites. Realtime fluorescence data were collected at 37° C. by Cary Eclipse Fluorescence Spectrometer. (εex=350 nm and εem=480 nm) with slit size.
as §2

[4] = tested on: normal-length T6 and pathogenic T48 [r(CUG)96] RNA; assay: Competitive binding assay (agarose gel, SYBR-Gold); conditions: equimolar binding-sites of T6 and T48, 37° C. for 16 hrs
Experimental: FIG. 12. Selective binding of r(CUGCUG)n-RNA transcripts by P4. The samples were prepared by mixing pre-annealed RNAs with probes at 37° C. for 4 hrs. The ratios of P4 to the total RNA binding-sites were 0 (lane 3), ¼ (lane 4), ½ (lane 5), 1/1 (lane 6); and for the mismatched P5 at 1/1 (lane 7). Competitive Binding Assay: T6 was purchased from IDT. T48, the same as r(CUG)96, was prepared as previous described, except that the DNA template was (CTG)96. T6 and T48 were separately annealed by heating up to 90° C. for 5 min and gradually cooled to room temperature. Probes and RNA targets were mixed at the indicated concentrations and incubated in a physiologically simulated buffer at 37° C. for 4 hr in silicon-coated Eppendorf tubes. The samples were then loaded onto 2% agarose-gel containing IX SYBR-Gold with Tris-borate buffer and electrophoretically separated at 100 V for 15 min. The bands were visualized by UV-Transilluminator. To assess the recognition selectivity of P4 probe, we carried out a competitive binding assay. Equimolar binding-sites of the normal-length T6 and the pathogenic T48 [r(CUG)96, prepared according to our published protocol, were incubated with different concentrations of P4 at 37° C. for 16 hrs. The resulting mixtures were analyzed by agarose-gel and stained with SYBR-Gold for visualization.

[5] = tested on: rCUG^exp-MBNL1 complex (T48 with GST-MBNL1-F1); assay: Analysis of T48-MBNL1 disruption by probe (gel-shift assay); type: biochemical; conditions: T48 25 nM, GST-MBNL1-F1 400 nM; increasing probe concentrations
Experimental: FIG. 13. Displacement of MBNL1 from T48 by P4. P-T48 was allowed to form complexes with GST-MBNL1-FI prior to the addition of P4. The samples were prepared in a physiologically relevant buffer at the final T48 and GST-MBNL1-FI concentration of 25 nM and 400 nM, respectively.
Analysis of T48-MBNL1 Disruption by Probe: T48 and GST-MBNL1-F1 were prepared as previously described. Radioisotopically labeled T48 was incubated with GST-MBNL1-F1 in buffer containing 50 mM Tris, 50 mM NaCl, 50 mM KCl and 1 mM MgCl2 (pH 8.0) at the indicated concentrations at 25° C. for 30 minutes. The indicated concentration of P4 was added to T48-MBNL1 complex. The samples were immediately loaded to 1.5% agarose gels with 1× Tris-borate buffer and electrophoretically separated at 100 V for 2 hrs. The bands were visualized by phosphorimaging and quantified with ImageQuant (Molecular Dynamics).
Next, we determined whether P4 can disrupt the rCUG^exp-MBNL1 complex by performing a gel-shift assay. The RNA-protein complex was prepared by incubating 5′-^32P-labelled T48 with MBNL1 at a physiologically relevant condition. Upon confirmation of their binding, P4 was added and the resulting mixtures were incubated at 37° C. for 4 hrs prior to their analysis by nondenaturing PAGE and autoradiography. Formation of the T48-MBNL1 complexes is evident by the smeared patterns observed in lanes 2 through 4 of FIG. 13. […]

Row | Substance | trend of Tms with number of binding-sites in the targets [1] | recognition selectivity / binding to T48 versus T6 [4] | differences in the Tms of RNAs with mismatched probes [1] | further results
1 | H-^LArg-^LLys(Pyr)-CAGCAG-^LLys(Pyr)-^LArg-NH2 [P4] | monotonically increased with the number of binding-sites | able to discriminate the pathogenic T48 from the wt-T12 |  | binding cooperativity (UV-melting profiles) ([1]; with T6, T6 1 μM, probe 6 μM, physiologically relevant buffer, comparison of linker lengths P2 through P4): highest degree of binding cooperativity; also recorded: cooperative binding was clearly observed; fluorescent intensities at 480 nm (pyrene-pyrene excimer) with number of binding-sites in RNAs [2]: gradual increase in the fluorescent intensities at 480 nm; hybridization lag-time with competing T1 strand ([3]; P4 1 μM added to T1 1 μM + T8 ⅛ μM (equimolar binding-sites) at 37° C.): 2 min; time to nearly complete hybridization to T8 ([3]; P4 1 μM added to T8 ⅛ μM at 37° C., fluorescence at 480 nm): ≤ 10 min; interaction with single-binding-site RNA ([3]; physiologically simulated condition, T1 competitor): weak and transient; disruption of rCUG^exp-MBNL1 complex / displacement of MBNL1 from T48 [5]: able to disrupt the rCUG^exp-MBNL1 complex
2 | H-^LArg-^LLys(Pyr)-CATCAG-^LLys(Pyr)-^LArg-NH2 [P5] |  | No evidence of binding | no discernible differences | 
3 | H-^LArg-^LLys(Pyr)-CTGCTG-^LLys(Pyr)-^LArg-NH2 [P6] |  |  | no discernible differences | 
4 | H-^L-Arg-CAGCAG-^LArg-NH2 [P1] | plateaued at X˜3 |  |  | 
